Source: ChEMBL document CHEMBL5143641, “Expanding the Chemical Diversity of Fasamycin Via Genome Mining and Biocatalysis” (2022)

Key:
Type in all cases: functional
Candida albicans = experiment: Antimicrobial activity against Candida albicans ATCC 10231 assessed as inhibition of microbial growth incubated for 16 hrs under shaking condition by microdilution assay
Bacillus subtilis = experiment: Antimicrobial activity against Bacillus subtilis ATCC 23857 assessed as inhibition of microbial growth incubated for 16 hrs under shaking condition by microdilution assay
Staphylococcus aureus = experiment: Antimicrobial activity against Staphylococcus aureus ATCC 51650 assessed as inhibition of microbial growth incubated for 16 hrs under shaking condition by microdilution assay
Escherichia coli = experiment: Antimicrobial activity against Escherichia coli ATCC 25922 assessed as inhibition of microbial growth incubated for 16 hrs under shaking condition by microdilution assay

Structure (SMILES) | MIC (Candida albicans) [µg/mL] | MIC (Bacillus subtilis) [µg/mL] | MIC (Staphylococcus aureus) [µg/mL] | MIC (Escherichia coli) [µg/mL]
COc1cc(O)c(-c2cc(O)c(Br)c3cc4c(c(O)c23)C(=O)c2c(O)cc(O)cc2C4(C)C)c(C)c1Br | > 100 | 1.6 | 1.6 | > 100
COc1cc(O)c(-c2cc(O)cc3cc4c(c(O)c23)C(=O)c2c(O)cc(O)cc2C4(C)C)c(C)c1Br | > 100 | 3.1 | 3.1 | > 100
NC[C@H]1O[C@H](O[C@H]2[C@H](O)[C@@H](O[C@H]3O[C@H](CO)[C@@H](O)[C@H](N)[C@H]3O)[C@H](N)C[C@@H]2N)[C@H](O)[C@@H](O)[C@@H]1O [KANAMYCIN] |  | 0.8 | 1.6 | 
COc1cc2c(c(O)c1Cl)C(=O)c1c(cc3cc(O)cc(-c4c(O)cc(OC)c(Br)c4C)c3c1O)C2(C)C | > 100 | 1.6 | 3.1 | > 100
COc1cc(C)c(-c2cc(OC)cc3cc4c(c(O)c23)C(=O)c2c(O)cc(O)cc2C4(C)C)c(O)c1 | > 100 | 12.5 | 6.3 | > 100
COc1cc(C)c(-c2cc(OC)cc3cc4c(c(O)c23)C(=O)c2c(O)cc(OC)cc2C4(C)C)c(O)c1 | > 100 | > 100 | > 100 | > 100
COc1cc(C)c(-c2cc(O)cc3cc4c(c(O)c23)C(=O)c2c(cc(OC)c(Br)c2O)C4(C)C)c(O)c1 | > 100 | 3.1 | 3.1 | > 100
COc1cc(O)c2c(c1)C(C)(C)c1cc3cc(O)cc(-c4c(O)cc(OC)c(Br)c4C)c3c(O)c1C2=O | > 100 | 1.6 | 3.1 | > 100

Further molecules by falling MIC (Bacillus subtilis), results first:

MIC (Candida albicans) [µg/mL] | MIC (Bacillus subtilis) [µg/mL] | MIC (Staphylococcus aureus) [µg/mL] | MIC (Escherichia coli) [µg/mL] | Structure (SMILES)
> 100 | 12.5 | 12.5 | > 100 | COc1cc(C)c(-c2cc(O)cc3cc4c(c(O)c23)C(=O)c2c(cc(O)c(Cl)c2O)C4(C)C)c(O)c1
> 100 | 6.3 | 6.3 | > 100 | COc1cc(O)c(-c2cc(O)cc3cc4c(c(O)c23)C(=O)c2c(O)cc(O)cc2C4(C)C)c(C)c1Cl
> 100 | 1.6 | 3.1 | > 100 | COc1cc(C)c(-c2cc(O)cc3cc4c(c(O)c23)C(=O)c2c(O)cc(OC)cc2C4(C)C)c(O)c1
> 100 | 1.6 | 3.1 | > 100 | COc1cc(C)c(-c2cc(O)cc3cc4c(c(O)c23)C(=O)c2c(cc(OC)c(Cl)c2O)C4(C)C)c(O)c1
> 100 | 1.6 | 3.1 | > 100 | COc1cc(O)c2c(c1)C(C)(C)c1cc3cc(O)cc(-c4c(O)cc(OC)c(Cl)c4C)c3c(O)c1C2=O
